Measurements: patent US20250223296A1, “HYDROXYMETHYL AZABICYCLO[2.2.1]HEPTANES AND MEDICAL USES THEREOF” (ATROGI AB, priority 2022, published 2025)

How the values were obtained:
[1] = system: L6-myotubes; assay: Measurement of intracellular cAMP levels in differentiated L6 cells; type: cell-based; details: Rattus norvegicus, L6, 0.25 h, compound at 10 µM (1×10^−5 M), 15 min, vs isoproterenol at 10 µM, read-out: Biological example 2: intracellular cAMP levels, activity compared to that of isoproterenol
Description: L6-myoblasts were grown in Dulbecco's Modified Eagle's Medium (DMEM) containing 1 g/L glucose supplemented with 10% fetal bovine serum, 2 mM L-Glutamine, 50 U/ml penicillin, 50 μg/mL streptomycin and 10 mM HEPES. Cells were plated at 1×10^5 cells per mL in 24-well plates. After reaching 90% confluence the cells were grown in medium containing 2% FBS for 7 days where upon cells differentiated into myotubes. Differentiated cells were serum-starved overnight and stimulated with an agonist, final concentration 1×10^−5 M, for 15 min in stimulation buffer (HBSS supplemented with 1% BSA, 5 mM HEPES and 1 mM IBMX, pH 7.4). The medium was aspirated and 100 μL of 95% EtOH was added to each well of the 24-well plate and cells were kept at −20° C. overnight. The EtOH was allowed to evaporate and 500 μL of lysis buffer (1% BSA, 5 mM HEPES and 0.3% Tween-20, pH 7.4) was added to each well. The plate was kept at −80° C. for 30 min and then at −20° C. until the day of detection when the samples were thawed. Intracellular cAMP levels were detected using an alpha screen CAMP kit (6760635D from Perkin Elmer). The activity for each compound is compared to that of isoproterenol.

[2] = system: L6-myotubes; assay: Glucose uptake (3H-2-deoxyglucose) in differentiated L6-myotubes; type: cell-based; details: compound at 10 µM (1×10^−5 M) vs isoproterenol at 10 µM, read-out: Biological example 1: glucose uptake, activity compared to that of isoproterenol
Description: L6-myoblasts were grown in Dulbecco's Modified Eagle's Medium (DMEM) containing 1 g/L glucose supplemented with 10% fetal bovine serum, 2 mM L-Glutamine, 50 U/ml penicillin, 50 μg/mL streptomycin and 10 mM HEPES. Cells were plated at 1×10^5 cells per mL in 24-well plates. After reaching 90% confluence the cells were grown in medium containing 2% FBS for 7 days where upon cells differentiated into myotubes. Differentiated L6-myotubes were serum-starved overnight in medium containing 0.5% fatty-acid free BSA and stimulated with an agonist, with a final concentration of 1×10^−5 M. After 1 h 40 min the cells were washed with warm glucose free medium or PBS twice and another portion of agonist was added to the glucose free medium. After 20 min the cells were exposed to 50 nM ^3H-2-deoxyglucose for another 10 min before washed in ice cold glucose free medium or PBS three times and lysed in 400 μL/well 0.2 M NaOH for 1 h at 60° C. The cell lysate was mixed with 4 mL scintillation buffer (Emulsifier Safe, Perkin Elmer) and the radioactivity was detected in a β-counter (Tri-Carb 4810TR, Perkin Elmer). The activity for each compound is compared to that of isoproterenol.

Row | SMILES | Emax at 10 µM [1] | Emax at 10 µM [2]
1 | O[C@H](c1cccc(F)c1)C12CCC(COCc3ccc(Cl)cc3)(CC1)N2 [Example 1, (R)-(4-(((4-Chlorobenzyl)oxy)methyl)-7-azabicyclo[2.2.1]heptan-1-yl)(3-fluorophenyl)methanol] | < 25% | > 75%
2 | O[C@@H](c1cccc(F)c1)C12CCC(COCc3ccc(Cl)cc3)(CC1)N2 [Example 2, (S)-(4-(((4-Chlorobenzyl)oxy)methyl)-7-azabicyclo[2.2.1]heptan-1-yl)(3-fluorophenyl)methanol] | < 25% | 50 to 75%
3 | O[C@H](c1cccc(F)c1)C12CCC(COCc3ccc(F)cc3)(CC1)N2 [Example 3, (R)-(4-(((4-Fluorobenzyl)oxy)methyl)-7-azabicyclo[2.2.1]heptan-1-yl)(3-fluorophenyl)methanol] | 25 to 50% | > 75%
4 | O[C@@H](c1cccc(F)c1)C12CCC(COCc3ccc(F)cc3)(CC1)N2 [Example 4, (S)-(4-(((4-Fluorobenzyl)oxy)methyl)-7-azabicyclo[2.2.1]heptan-1-yl)(3-fluorophenyl)methanol] | < 25% | 25 to 50%
5 | O[C@H](c1cncc(F)c1)C12CCC(COCc3ccc(F)cc3)(CC1)N2 [Example 5, (R)-(4-(((4-Fluorobenzyl)oxy)methyl)-7-azabicyclo[2.2.1]heptan-1-yl)(5-fluoropyridin-3-yl)methanol] | 25 to 50% | > 75%
6 | O[C@@H](c1cncc(F)c1)C12CCC(COCc3ccc(F)cc3)(CC1)N2 [Example 6, (S)-(4-(((4-Fluorobenzyl)oxy)methyl)-7-azabicyclo[2.2.1]heptan-1-yl)(5-fluoropyridin-3-yl)methanol] | < 25% | 50 to 75%
7 | O[C@H](c1cccc(F)c1)C12CCC(Cc3ccccc3)(CC1)N2 [Example 7, (R)-(4-Benzyl-7-azabicyclo[2.2.1]heptan-1-yl)(3-fluorophenyl)methanol] | 25 to 50% | > 75%
8 | O[C@@H](c1cccc(F)c1)C12CCC(Cc3ccccc3)(CC1)N2 [Example 8, (S)-(4-Benzyl-7-azabicyclo[2.2.1]heptan-1-yl)(3-fluorophenyl)methanol] | < 25% | 50 to 75%
9 | COc1ccc(CC23CCC([C@H](O)c4cccc(F)c4)(CC2)N3)cc1 [Example 9, (R)-(3-Fluorophenyl)(4-(4-methoxybenzyl)-7-azabicyclo[2.2.1]heptan-1-yl)methanol] | < 25% | > 75%
10 | COc1ccc(CC23CCC([C@@H](O)c4cccc(F)c4)(CC2)N3)cc1 [Example 10, (S)-(3-Fluorophenyl)(4-(4-methoxybenzyl)-7-azabicyclo[2.2.1]heptan-1-yl)methanol] | < 25% | 50 to 75%
11 | O[C@H](c1cccc(F)c1)C12CCC(Cc3ccc(F)cc3)(CC1)N2 [Example 11, (R)-(4-(4-Fluorobenzyl)-7-azabicyclo[2.2.1]heptan-1-yl)-(3-fluoro-phenyl)methanol] | < 25% | > 75%
12 | O[C@@H](c1cccc(F)c1)C12CCC(Cc3ccc(F)cc3)(CC1)N2 [Example 12, (S)-(4-(4-Fluorobenzyl)-7-azabicyclo[2.2.1]heptan-1-yl)-(3-fluorophenyl)methanol] | < 25% | 50 to 75%
13 | CO[C@H]1CC[C@H](CCC23CCC([C@H](O)c4cccc(F)c4)(CC2)N3)CC1 [Example 13, (R)-(3-Fluorophenyl)(4-(2-(trans-4-methoxycyclohexyl)ethyl)-7-azabicyclo[2.2.1]heptan-1-yl)methanol] | 50 to 75% | > 75%
14 | CO[C@H]1CC[C@H](CCC23CCC([C@@H](O)c4cccc(F)c4)(CC2)N3)CC1 [Example 14, (S)-(3-Fluorophenyl)(4-(2-((trans)-4-methoxycyclohexyl)ethyl)-7-aza-bicyclo[2.2.1]heptan-1-yl)methanol] | < 25% | 50 to 75%
15 | O[C@H](c1cccc(F)c1)C12CCC(COCc3ccc(OC(F)(F)F)cc3)(CC1)N2 [Example 15, (R)-(3-Fluorophenyl)(4-(((4-(trifluoromethoxy)benzyl)oxy)methyl)-7-azabicyclo[2.2.1]heptan-1-yl)methanol] | < 25% | < 25%
16 | O[C@@H](c1cccc(F)c1)C12CCC(COCc3ccc(OC(F)(F)F)cc3)(CC1)N2 [Example 16] | < 25% | < 25%
17 | O[C@H](c1cncc(F)c1)C12CCC(COCc3ccc(OC(F)(F)F)cc3)(CC1)N2 [Example 17, (R)-(5-Fluoropyridin-3-yl)(4-(((4-(trifluoromethoxy)benzyl)oxy)-methyl)-7-azabicyclo[2.2.1]heptan-1-yl)methanol] | < 25% | 50 to 75%
18 | O[C@@H](c1cncc(F)c1)C12CCC(COCc3ccc(OC(F)(F)F)cc3)(CC1)N2 [Example 18, (S)-(5-Fluoropyridin-3-yl)(4-(((4-(trifluoromethoxy)benzyl)oxy)methyl)-7-azabicyclo[2.2.1]heptan-1-yl)methanol] | < 25% | < 25%
19 | O[C@H](c1cccc(F)c1)C12CCC(Cc3ccc(OC(F)(F)F)cc3)(CC1)N2 [Example 19, (R)-(3-Fluorophenyl)(4-(4-(trifluoromethoxy)benzyl)-7-azabicyclo-[2.2.1]heptan-1-yl)methanol] | < 25% | < 25%
20 | O[C@@H](c1cccc(F)c1)C12CCC(Cc3ccc(OC(F)(F)F)cc3)(CC1)N2 [Example 20, (S)-(3-Fluorophenyl)(4-(4-(trifluoromethoxy)benzyl)-7-azabicyclo-[2.2.1]heptan-1-yl)methanol] | < 25% | < 25%
21 | CS(=O)(=O)N(Cc1ccccc1)c1ccc(CC23CCC([C@H](O)c4cccc(F)c4)(CC2)N3)cc1 [Example 21] | < 25% | 25 to 50%
22 | CS(=O)(=O)N(Cc1ccccc1)c1ccc(CC23CCC([C@@H](O)c4cccc(F)c4)(CC2)N3)cc1 [Example 22, N-Benzyl-N-(4-((4-((S)-(3-fluorophenyl)(hydroxy)methyl)-7-aza-bicyclo[2.2.1]heptan-1-yl)methyl)phenyl)methanesulfonamide] | < 25% | 25 to 50%
23 | CS(=O)(=O)N(Cc1ccccc1)c1cccc(CC23CCC([C@H](O)c4cccc(F)c4)(CC2)N3)c1 [Example 23, N-Benzyl-N-(3-((4-((R)-(3-fluorophenyl)(hydroxy)methyl)-7-aza-bicyclo[2.2.1]heptan-1-yl)methyl)phenyl)methanesulfonamide] | < 25% | 50 to 75%
24 | CS(=O)(=O)N(Cc1ccccc1)c1cccc(CC23CCC([C@@H](O)c4cccc(F)c4)(CC2)N3)c1 [Example 24, N-Benzyl-N-(3-((4-((S)-(3-fluorophenyl)(hydroxy)methyl)-7-aza-bicyclo[2.2.1]heptan-1-yl)methyl)phenyl)methanesulfonamide] | < 25% | 50 to 75%
25 | CS(=O)(=O)Nc1ccc(CC23CCC([C@H](O)c4cccc(F)c4)(CC2)N3)cc1 [Example 25, N-(4-((4-((R)-(3-Fluorophenyl)(hydroxy)methyl)-7-azabicyclo[2.2.1]-heptan-1-yl)methyl)phenyl)methanesulfonamide] | < 25% | 50 to 75%
26 | CS(=O)(=O)Nc1ccc(CC23CCC([C@@H](O)c4cccc(F)c4)(CC2)N3)cc1 [Example 26, N-(4-((4-((S)-(3-Fluorophenyl)(hydroxy)methyl)-7-azabicyclo[2.2.1]-heptan-1-yl)methyl)phenyl)methanesulfonamide] | < 25% | 50 to 75%
27 | CS(=O)(=O)Nc1cccc(CC23CCC([C@H](O)c4cccc(F)c4)(CC2)N3)c1 [Example 27, N-(3-((4-((R)-(3-Fluorophenyl)(hydroxy)methyl)-7-azabicyclo-[2.2.1]heptan-1-yl)methyl)phenyl)methanesulfonamide] | < 25% | 50 to 75%
28 | CS(=O)(=O)Nc1cccc(CC23CCC([C@@H](O)c4cccc(F)c4)(CC2)N3)c1 [Example 28, N-(3-((4-((S)-(3-Fluorophenyl)(hydroxy)methyl)-7-azabicyclo[2.2.1]-heptan-1-yl)methyl)phenyl)methanesulfonamide] | < 25% | 50 to 75%
